# Assay results published in patent publication EP1172104A1, “SEAM SOFT CAPSULE PREPARATIONS CONTAINING DIHYDROBENZOFURAN DERIVATIVE” (CHUGAI SEIYAKU KABUSHIKI KAISHA, priority 1999, dated 2000).
# Assays:
# Assay type in all cases: physicochemical
# [1] = Stability of seamed soft capsule formulation of BO-653 (1): Formulations 1 and 2, accelerated tests, HPLC; conditions: 100% oxygen atmosphere
# Method: Formulations 1 and 2 obtained in Example 1 were tested for their stability under the conditions below: Condition 1: • Formulation 1 was left at 40°C in a 100% oxygen atmosphere. Condition 2: • Formulation 1 was left at 50°C in a 100% oxygen atmosphere. Condition 3: • Formulation 2 was left at 50°C in a 100% oxygen atmosphere.
# As a control, BO-653 was dissolved in soybean oil to give a concentration of 10% by weight and the solution was left at 40°C in a 100% oxygen atmosphere in the form that the solution was not filled into a soft capsule.
# [2] = Stability of seamed soft capsule formulations of BO-653 (2): Formulation 3, shell thickness and glycerin content, HPLC; conditions: Formulation 3 (50% w/w in soybean oil)
# Method: Formulation 3 obtained in Example 1 was stored at 50°C in a 100% oxygen atmosphere.
# [3] = Stability of seamed soft capsule formulations of BO-653 (3): Formulation 4, various storage conditions, HPLC
# [4] = Stability of BO-653 in various fat and oils (influence of oxygen, accelerated test at 80°C, HPLC); conditions: 17 hours
# Method: The influence of oxygen on the stability of BO-653 in various fat and oils was tested. BO-653 was dissolved in soybean oil, olive oil, MCT, tricaprylin, and linoleic acid separately to give a concentration of 50% by weight. 70 mg of each of the solutions was placed into individual 5 cc glass bottles. Separately, 35 mg of BO-653 was directly placed into a 5 cc glass bottle. The samples were prepared in duplicate. One set of samples were subjected to an argon replacement of the headspace of the bottles and then tightly sealed, while the other set of samples were sealed without argon replacement. Accelerated test at 80°C was conducted using all of the samples.
substance,measurement,setting,value
"4,6-di-tert-butyl-2,2-di-n-pentyl-5-hydroxy-2,3-dihydrobenzofuran [BO-653]",Residual ratio (%) of BO-653,"[1]; Condition 1: Formulation 1 (10% w/w in soybean oil, seamed soft capsule), 40°C, 1 month",100.7%
same,Residual ratio (%) of BO-653,"[1]; Condition 2: Formulation 1 (10% w/w in soybean oil, seamed soft capsule), 50°C, 2 weeks",99.6%
same,Residual ratio (%) of BO-653,"[1]; Condition 3: Formulation 2 (10% w/w in MCT, seamed soft capsule), 50°C, 3 weeks",92.8%
same,Residual ratio (%) of BO-653,"[1]; Control: 10% by weight solution in soybean oil not filled into a soft capsule, 40°C, 1 month",< 0.2%
same,Content (%) of BO-653 after left at 50°C in a 100% oxygen atmosphere for 1 month,"[2]; Capsule No. 1: thickness 26 x 10^-3 inch (66 x 10^-2 mm), glycerin content 30.0",99.4%
same,Content (%) of BO-653 after left at 50°C in a 100% oxygen atmosphere for 1 month,"[2]; Capsule No. 2: thickness 30 x 10^-3 inch (76 x 10^-2 mm), glycerin content 30.0",99.9%
same,Content (%) of BO-653 after left at 50°C in a 100% oxygen atmosphere for 1 month,"[2]; Capsule No. 3: thickness 34 x 10^-3 inch (86 x 10^-2 mm), glycerin content 30.0",99.7%
same,Content (%) of BO-653 after left at 50°C in a 100% oxygen atmosphere for 1 month,"[2]; Capsule No. 4: thickness 26 x 10^-3 inch (66 x 10^-2 mm), glycerin content 44.2",98.8%
same,Content (%) of BO-653 after left at 50°C in a 100% oxygen atmosphere for 1 month,"[2]; Capsule No. 5: thickness 30 x 10^-3 inch (76 x 10^-2 mm), glycerin content 44.2",100.0%
same,Content (%) of BO-653 after left at 50°C in a 100% oxygen atmosphere for 1 month,"[2]; Capsule No. 6: thickness 34 x 10^-3 inch (86 x 10^-2 mm), glycerin content 44.2",100.8%
same,Content (%) of BO-653 after left at 50°C in a 100% oxygen atmosphere for 1 month,"[2]; Capsule No. 8: thickness 30 x 10^-3 inch (76 x 10^-2 mm), glycerin content 56.4",97.0%
same,Content (%) of BO-653 after left at 50°C in a 100% oxygen atmosphere for 1 month,"[2]; Capsule No. 9: thickness 34 x 10^-3 inch (86 x 10^-2 mm), glycerin content 56.4",98.8%
same,Residual ratio (%) of BO-653,"[3]; Formulation 4, BO-653 content in filling solution 4% by weight, 40°C, RH75% - 1M",99.0%
same,Residual ratio (%) of BO-653,"[3]; Formulation 4, BO-653 content in filling solution 4% by weight, 50°C, 100% oxygen atmosphere-1M",100.0%
same,Residual ratio (%) of BO-653,"[3]; Formulation 4, BO-653 content in filling solution 4% by weight, irradiation with 1,200,000 lux.hrs white light",100.0%
same,Residual ratio (%) of BO-653,"[3]; Formulation 4, BO-653 content in filling solution 4% by weight, irradiation with 1,200,000 lux.hrs white light followed by 400 W.hrs/m^2 UV rays",98.0%
same,Residual ratio (%) of BO-653,"[3]; Formulation 4, BO-653 content in filling solution 40% by weight, 40°C, RH75% - 1M",100.1%
same,Residual ratio (%) of BO-653,"[3]; Formulation 4, BO-653 content in filling solution 40% by weight, 50°C, 100% oxygen atmosphere-1M",100.7%
same,Residual ratio (%) of BO-653,"[3]; Formulation 4, BO-653 content in filling solution 40% by weight, irradiation with 1,200,000 lux.hrs white light",100.0%
same,Residual ratio (%) of BO-653,"[3]; Formulation 4, BO-653 content in filling solution 40% by weight, irradiation with 1,200,000 lux.hrs white light followed by 400 W.hrs/m^2 UV rays",99.7%
same,Residual ratio (%) of BO-653,"[3]; Formulation 4, BO-653 content in filling solution 80% by weight, 40°C, RH75% - 1M",99.8%
same,Residual ratio (%) of BO-653,"[3]; Formulation 4, BO-653 content in filling solution 80% by weight, 50°C, 100% oxygen atmosphere-1M",101.0%
same,Residual ratio (%) of BO-653,"[3]; Formulation 4, BO-653 content in filling solution 80% by weight, irradiation with 1,200,000 lux.hrs white light",99.5%
same,Residual ratio (%) of BO-653,"[3]; Formulation 4, BO-653 content in filling solution 80% by weight, irradiation with 1,200,000 lux.hrs white light followed by 400 W.hrs/m^2 UV rays",99.8%
same,residual ratio of BO-653,"[4]; 50% by weight in soybean oil, without argon replacement (presence of oxygen)",Relatively high stability
same,residual ratio of BO-653,"[4]; BO-653 alone or 50% by weight in soybean oil, olive oil, MCT, tricaprylin or linoleic acid, with argon replacement (absence of oxygen)",little loss
